Test results published in patent US10259804B2, “Anti-endothelial lipase compounds and methods of using the same in the treatment and/or prevention of cardiovascular diseases” (Shifa Biomedical Corporation, priority 2014, dated 2019).

Experiments:
Format in all cases: biochemical
[1] = biological target: T1, human full-length HL (hepatic lipase) (Homo sapiens, UniProt P11150); assay: HL selectivity assay (phospholipase kit, resorufinoleate substrate); conditions: even at 200 uM compound concentration
T1 construct: We have cloned the human full-length EL, LPL, HL and PL; made in house; host or cells: HEK-293, transient transfection
T1 sequence (P11150 23-499): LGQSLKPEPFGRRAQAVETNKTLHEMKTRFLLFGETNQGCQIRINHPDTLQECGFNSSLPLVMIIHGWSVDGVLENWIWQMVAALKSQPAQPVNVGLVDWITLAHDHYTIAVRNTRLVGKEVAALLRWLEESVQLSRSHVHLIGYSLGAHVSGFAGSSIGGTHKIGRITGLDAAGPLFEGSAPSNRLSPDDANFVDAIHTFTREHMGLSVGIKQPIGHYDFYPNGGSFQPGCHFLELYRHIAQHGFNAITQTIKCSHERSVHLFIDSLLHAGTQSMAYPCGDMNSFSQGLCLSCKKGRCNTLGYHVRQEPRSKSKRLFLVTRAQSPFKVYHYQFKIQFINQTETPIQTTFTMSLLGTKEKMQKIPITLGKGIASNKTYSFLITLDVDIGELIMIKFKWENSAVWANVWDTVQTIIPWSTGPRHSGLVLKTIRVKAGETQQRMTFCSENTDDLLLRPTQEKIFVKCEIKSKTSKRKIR
Protocol: (§1) Preparation of constructs: We have cloned the human full-length EL, LPL, HL and PL. The cDNA encoding the EL, LPL, HL and PL sequence was cloned by PCR and subcloned into a mammalian expression vector containing the cytomegalovirus promoter-enhancer. The constructs were confirmed by sequence analysis.
(§2) Expression of EL, LPL, HL and PL in mammalian cells: The above constructs were used to transfect HEK-293 cells. The cells were seeded into T75 plates in a DMEM solution containing 10% Fetal Bovine Serum media and incubated overnight at 37° C. Cells were transiently transfected with various cDNA constructs using the Lipofectamine-LTX as described by the manufacturer (Invitrogen). After transfection, cells were then incubated for an additional 48 hours at 37° C. before being analyzed for expression. After 48 hours of incubation, following transfection, cells were collected for analysis by western blots for the expression of EL, LPL, HL and PL.
(§3) LPL, PL and HL selectivity assays: For measuring LPL, PL and HL activity, we used the commercially available phospholipase kit (MGT). The activity of the substrate, resorufinoleate is quite good for both phospholipase A1 and phospholipase A2, and therefore is ideal for LPL, PL and HL. Since the substrate is quite general for other lipases such as triacylglycerol lipases or lipoprotein lipases, we utilized our recombinant system and cell specific expression system to achieve the desired specificity. The LPL, PL and HL enzyme activity measurements were conducted using a 96-well microtiter plate. All appropriate controls were implemented.
(§4) Experiments were also performed to determine the specificity of our best compounds against the most closely related homologues, LPL, PL and HL.

[2] = biological target: T2, human full-length EL (endothelial lipase) (Homo sapiens, UniProt Q9Y5X9); assay: EL inhibition assay using cell extracts of HEK293/EL transfected cells; conditions: compound 0.001-200 μM, means of three experiments
T2 construct: We have cloned the human full-length EL, LPL, HL and PL; made in house; host or cells: HEK-293, transient transfection; cell extracts used
T2 sequence (Q9Y5X9 21-500): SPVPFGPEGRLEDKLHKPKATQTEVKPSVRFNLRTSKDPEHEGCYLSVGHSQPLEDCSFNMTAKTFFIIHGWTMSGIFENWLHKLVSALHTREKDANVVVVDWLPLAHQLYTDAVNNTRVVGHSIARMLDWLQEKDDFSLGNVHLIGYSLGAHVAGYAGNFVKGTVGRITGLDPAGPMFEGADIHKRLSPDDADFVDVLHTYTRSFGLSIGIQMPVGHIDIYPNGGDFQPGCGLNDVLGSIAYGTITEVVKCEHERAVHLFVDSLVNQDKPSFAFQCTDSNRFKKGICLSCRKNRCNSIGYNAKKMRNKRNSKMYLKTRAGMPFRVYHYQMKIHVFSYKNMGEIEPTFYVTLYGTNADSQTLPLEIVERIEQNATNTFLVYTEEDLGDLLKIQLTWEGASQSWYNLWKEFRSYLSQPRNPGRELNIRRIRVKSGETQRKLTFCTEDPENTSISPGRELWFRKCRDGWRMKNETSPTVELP
Protocol: as §1, §2
EL screening assay: We developed and implemented two assays (a) in assay one the HDL-C functions as a substrate for the assay. This assay measures the rate of HDL hydrolysis by EL that yields free fatty acids, which are then coupled through acyl-CoA synthetase, acyl-CoA oxidase and horseradish peroxidase to produce the fluorescent species, resorufin; (b) in assay two PED-A1, a novel fluorogenic phospholipase A1-selective substrate was used for EL measurements. […] Assay one was used for initial screening, while assay two was used for secondary screening and EL kinetics.
Characterization of the Hits: A library of compounds that modified both the urea and sulfonamide substituents on the 5-methyl furan were synthesized. The library was extensively analyzed for EL potency, and then the data was utilized to further optimize the compounds. Seven compounds were selected for potency, kinetic and selectivity confirmation.
In order to determine the Ki value, we used variable concentrations of the compound and variable substrate concentrations.

[3] = biological target: T3, human full-length PL (pancreatic lipase) (Homo sapiens, UniProt P16233); assay: PL selectivity assay (phospholipase kit, resorufinoleate substrate); conditions: even at 200 uM compound concentration
T3 construct: We have cloned the human full-length EL, LPL, HL and PL; made in house; host or cells: HEK-293, transient transfection
T3 sequence (P16233 17-465): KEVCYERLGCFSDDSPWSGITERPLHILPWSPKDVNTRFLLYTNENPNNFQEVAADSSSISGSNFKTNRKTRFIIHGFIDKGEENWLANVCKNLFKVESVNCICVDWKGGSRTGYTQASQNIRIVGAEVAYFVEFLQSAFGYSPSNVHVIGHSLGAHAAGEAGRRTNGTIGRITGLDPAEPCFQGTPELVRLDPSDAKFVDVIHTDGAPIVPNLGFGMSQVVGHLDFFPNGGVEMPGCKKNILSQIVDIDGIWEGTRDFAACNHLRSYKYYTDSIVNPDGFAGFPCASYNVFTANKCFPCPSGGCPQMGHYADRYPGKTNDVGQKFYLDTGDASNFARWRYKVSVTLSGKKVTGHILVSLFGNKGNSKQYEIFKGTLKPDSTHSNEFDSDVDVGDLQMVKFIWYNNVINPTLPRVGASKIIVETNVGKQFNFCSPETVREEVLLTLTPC
Protocol: as §1, §2, §3, §4

[4] = biological target: T4, human full-length LPL (lipoprotein lipase) (Homo sapiens, UniProt P06858); assay: LPL selectivity assay (phospholipase kit, resorufinoleate substrate); conditions: even at 200 uM compound concentration
T4 construct: We have cloned the human full-length EL, LPL, HL and PL; made in house; host or cells: HEK-293, transient transfection
T4 sequence (P06858 28-475): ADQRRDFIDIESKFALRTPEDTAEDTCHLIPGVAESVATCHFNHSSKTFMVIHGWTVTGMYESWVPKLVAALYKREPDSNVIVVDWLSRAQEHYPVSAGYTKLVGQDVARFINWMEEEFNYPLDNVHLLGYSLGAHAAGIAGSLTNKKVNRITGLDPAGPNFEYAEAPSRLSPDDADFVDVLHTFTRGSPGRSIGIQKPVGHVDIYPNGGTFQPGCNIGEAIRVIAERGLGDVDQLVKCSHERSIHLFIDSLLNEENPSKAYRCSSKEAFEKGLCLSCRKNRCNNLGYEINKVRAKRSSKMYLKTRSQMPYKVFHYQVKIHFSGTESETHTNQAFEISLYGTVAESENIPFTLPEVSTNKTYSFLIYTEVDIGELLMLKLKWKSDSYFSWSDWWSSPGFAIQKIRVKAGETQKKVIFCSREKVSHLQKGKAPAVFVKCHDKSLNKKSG
Protocol: as §1, §2, §3, §4

SMILES: COC1CCN(S(=O)(=O)c2cc(NC(=O)NCc3ccccc3C(F)(F)F)c(C)o2)CC1 [SBC-140,460]
- inhibition against HL activity [1]: no inhibition
- IC50 [2]: 19 nM
- inhibition against PL activity [3]: no inhibition
- inhibition against LPL activity [4]: no inhibition

SMILES: Cc1ccccc1NC(=O)Nc1cc(S(=O)(=O)N2CCC(C(F)(F)F)CC2)oc1C [SBC-140,466]
- inhibition against HL activity [1]: no inhibition
- IC50 [2]: 62 nM
- inhibition against PL activity [3]: no inhibition
- inhibition against LPL activity [4]: no inhibition

SMILES: Cc1oc(S(=O)(=O)N2CCC(C(F)(F)F)CC2)cc1NC(=O)NC(c1ccccc1)C(F)(F)F (stereo not drawn) [SBC-140,472]
- inhibition against HL activity [1]: no inhibition
- IC50 [2]: 79 nM
- inhibition against PL activity [3]: no inhibition
- inhibition against LPL activity [4]: no inhibition
